These results are taken from ChEMBL document CHEMBL4041509, “Structure-activity relationship study of novel 2-aminobenzofuran derivatives as P-glycoprotein inhibitors” (Eur J Med Chem, 2017).

One may read the pIC50 as −log10 of the IC50, conventionally taken in molar units.

Structures are written as SMILES. pIC50: −log10 of the molar value.

The target in data set [1] is T1, ATP-dependent translocase ABCB1 (Homo sapiens, UniProt P08183). Nature of the data set: Inhibition of ABCB1 (unknown origin) expressed in Flp-In-293 cells assessed as increase in calcein-AM uptake at 5 uM preincubated for 30 mins followed by calcein-AM addition measured after 30 mins by fluorescence spectrometric method relative to control. The note with it: 0.5 h. Type of data set: cell-based.

Data set [2] has as its target T1, ATP-dependent translocase ABCB1. Description: Inhibition of ABCB1 (unknown origin) expressed in Flp-In-293 cells assessed as increase in calcein-AM uptake at 2.5 uM preincubated for 30 mins followed by calcein-AM addition measured after 30 mins by fluorescence spectrometric method relative to control. The data set is classed as cell-based. The note with it: 0.5 h.

The target is the same in data set [3]. Nature of the data set: Inhibition of ABCB1 (unknown origin) expressed in Flp-In-293 cells assessed as increase in calcein-AM uptake at 10 uM preincubated for 30 mins followed by calcein-AM addition measured after 30 mins by fluorescence spectrometric method relative to control. The data set is classed as cell-based. The note with it: 0.5 h.
For data set [4], the species on record is Homo sapiens. Nature of the data set: Inhibition of P-gp in human HeLaS3 cells assessed as potentiation of vincristine-induced cytotoxicity at 2.5 uM by SRB assay relative to control. Type of data set: cell-based. In general terms: The SRB assay estimates cell density from bound dye.
Data set [5] concerns HEK293. Description: Potentiation of vincristine-induced cytotoxicity against human Flp-In-293 cells at 1 uM by SRB assay relative to control. The data set is classed as functional.
The species entered for data set [6] is Homo sapiens. Description: Inhibition of P-gp in human KBVIN cells assessed as potentiation of doxorubicin-induced cytotoxicity at 1 uM by SRB assay relative to control. Type of data set: cell-based.
Data set [7] is filed under the species Homo sapiens. Nature of the data set: Inhibition of P-gp in human KBVIN cells assessed as potentiation of vincristine-induced cytotoxicity at 2.5 uM by SRB assay relative to control. Type of data set: cell-based.
Data set [8] concerns HeLa S3. Description: Cytotoxicity against human HeLaS3 assessed as reduction in cell viability by SRB assay. The data set is classed as cell-based.
Data set [9] relates to HEK293. Nature of the data set: Potentiation of doxorubicin-induced cytotoxicity against human Flp-In-293 cells at 2.5 uM by SRB assay relative to control. Type of data set: functional.
The test system of data set [10] is HEK293. Description: Potentiation of doxorubicin-induced cytotoxicity against human Flp-In-293 cells at 1 uM by SRB assay relative to control. Type of data set: functional.
For data set [11], the species on record is Homo sapiens. Nature of the data set: Inhibition of P-gp in human KBVIN cells assessed as potentiation of paclitaxel-induced cytotoxicity at 1 uM by SRB assay relative to control. The data set is classed as cell-based.
The species named for data set [12] is Homo sapiens. Description: Inhibition of P-gp in human HeLaS3 cells assessed as potentiation of vincristine-induced cytotoxicity at 1 uM by SRB assay relative to control. Type of data set: cell-based.
For data set [13], the species on record is Homo sapiens. Description: Inhibition of P-gp in human HeLaS3 cells assessed as potentiation of doxorubicin-induced cytotoxicity at 2.5 uM by SRB assay relative to control. Type of data set: cell-based.
Data set [14] has as its system HEK293. Nature of the data set: Potentiation of paclitaxel-induced cytotoxicity against human Flp-In-293 cells at 1 uM by SRB assay relative to control. The data set is classed as functional.
For data set [15], the species on record is Homo sapiens. Description: Inhibition of P-gp in human KBVIN cells assessed as potentiation of paclitaxel-induced cytotoxicity at 2.5 uM by SRB assay relative to control. Type of data set: cell-based.
The species entered for data set [16] is Homo sapiens. Description: Inhibition of P-gp in human HeLaS3 cells assessed as potentiation of paclitaxel-induced cytotoxicity at 1 uM by SRB assay relative to control. Type of data set: cell-based.
Data set [17] concerns HEK293. Description: Potentiation of vincristine-induced cytotoxicity against human Flp-In-293 cells at 2.5 uM by SRB assay relative to control. Type of data set: functional.
For data set [18], the system named is HEK293. Nature of the data set: Potentiation of paclitaxel-induced cytotoxicity against human Flp-In-293 cells at 2.5 uM by SRB assay relative to control. The data set is classed as functional.
For data set [19], the species on record is Homo sapiens. Description: Inhibition of P-gp in human KBVIN cells assessed as potentiation of doxorubicin-induced cytotoxicity at 2.5 uM by SRB assay relative to control. The data set is classed as cell-based.
For data set [20], the species on record is Homo sapiens. Nature of the data set: Inhibition of P-gp in human HeLaS3 cells assessed as potentiation of doxorubicin-induced cytotoxicity at 1 uM by SRB assay relative to control. Type of data set: cell-based.
For data set [21], the species on record is Homo sapiens. Nature of the data set: Inhibition of P-gp in human KBVIN cells assessed as potentiation of vincristine-induced cytotoxicity at 1 uM by SRB assay relative to control. The data set is classed as cell-based.

T1 sequence (P08183 whole entry): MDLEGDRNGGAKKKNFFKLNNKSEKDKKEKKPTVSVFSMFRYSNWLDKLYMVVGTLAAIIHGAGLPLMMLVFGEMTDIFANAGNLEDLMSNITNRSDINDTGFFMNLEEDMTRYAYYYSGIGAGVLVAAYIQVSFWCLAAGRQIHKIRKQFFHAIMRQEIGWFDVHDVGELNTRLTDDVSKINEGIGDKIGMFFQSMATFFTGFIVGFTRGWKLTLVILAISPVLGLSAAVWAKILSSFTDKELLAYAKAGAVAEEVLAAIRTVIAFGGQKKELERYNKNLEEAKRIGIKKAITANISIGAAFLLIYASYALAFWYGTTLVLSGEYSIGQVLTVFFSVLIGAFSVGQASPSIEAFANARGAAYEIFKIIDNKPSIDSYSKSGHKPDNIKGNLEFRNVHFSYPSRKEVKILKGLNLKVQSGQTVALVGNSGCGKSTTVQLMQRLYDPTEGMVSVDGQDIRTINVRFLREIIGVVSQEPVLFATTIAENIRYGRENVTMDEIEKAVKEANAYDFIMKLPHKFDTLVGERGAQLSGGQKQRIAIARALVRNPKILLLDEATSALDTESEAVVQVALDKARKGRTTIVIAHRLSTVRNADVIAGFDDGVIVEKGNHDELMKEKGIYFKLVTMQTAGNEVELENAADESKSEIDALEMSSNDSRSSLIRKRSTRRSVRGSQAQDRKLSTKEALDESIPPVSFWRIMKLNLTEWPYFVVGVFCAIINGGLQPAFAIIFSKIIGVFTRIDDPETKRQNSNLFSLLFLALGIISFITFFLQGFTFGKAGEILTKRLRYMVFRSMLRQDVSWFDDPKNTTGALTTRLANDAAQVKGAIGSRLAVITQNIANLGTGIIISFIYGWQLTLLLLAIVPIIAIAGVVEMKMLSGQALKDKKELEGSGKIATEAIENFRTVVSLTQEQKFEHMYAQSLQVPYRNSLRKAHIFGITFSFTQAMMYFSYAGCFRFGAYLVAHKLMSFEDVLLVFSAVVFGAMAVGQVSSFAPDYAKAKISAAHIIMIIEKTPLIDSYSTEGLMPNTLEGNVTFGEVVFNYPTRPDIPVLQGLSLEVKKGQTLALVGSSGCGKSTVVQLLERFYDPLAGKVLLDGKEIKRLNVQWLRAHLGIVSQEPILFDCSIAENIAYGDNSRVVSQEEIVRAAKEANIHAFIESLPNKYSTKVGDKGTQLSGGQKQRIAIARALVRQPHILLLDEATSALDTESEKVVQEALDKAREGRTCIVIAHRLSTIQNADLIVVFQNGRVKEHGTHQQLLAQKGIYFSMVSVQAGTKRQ

For the compound `COc1ccc(-c2cc(OC(C)=O)c3c(-c4ccc(Cl)c(Cl)c4)c(N)oc3c2)cc1`, the “fold change (FC)” value in data set [1] is recorded as 1.83; in data set [2] it was 1.82.
As for `COc1ccc(-c2cc(OCc3ccncc3)c3c(-c4cccs4)c(N)oc3c2)cc1OC`, the “fold change (FC)” value in data set [3] is given as 7.79; in [1], 5.93.
The matching figures for `COc1ccc(-c2cc(OCc3cccc(OC)c3)c3c(-c4cccs4)c(N)oc3c2)cc1`: 0.71 and 0.78.
As for `COc1ccc(-c2cc(OCc3ccc([N+](=O)[O-])cc3)c3c(-c4cccs4)c(N)oc3c2)cc1`, the figures for the “fold change (FC)” value in [3] and in data set [1] were 0.85 and 0.78, respectively.
As to `CC(=O)Oc1cc(-c2ccccc2)cc2oc(N)c(-c3cccs3)c12`, the “fold change (FC)” value in data set [1] is given as 0.98; in data set [2], 0.95.
On to `COc1ccc(-c2cc(OC(C)=O)c3c(-c4c(F)cccc4Cl)c(N)oc3c2)cc1`, for which the figures for the “fold change (FC)” value in data set [1] and in data set [2] were 1.61 and 1.35, respectively.
As to `COc1ccc(-c2cc(OC(C)=O)c3c(-c4cccs4)c(N)oc3c2)cc1`, the “fold change (FC)” value in data set [1] is recorded as 2.2; in data set [2], 1.9.
Turning to `COc1ccc(-c2cc(OCc3ccccn3)c3c(-c4cccs4)c(N)oc3c2)cc1`, the “fold change (FC)” value in data set [3] is on record as 4.33; in data set [1] it was 3.22.
As for `COc1ccc(-c2cc(OCc3cccnc3)c3c(-c4cccs4)c(N)oc3c2)cc1`, the figures for the “fold change (FC)” value in data set [3] and in data set [1] were 4.72 and 3.68, respectively.
For the compound `COc1ccc(-c2cc(OCCN3CCOCC3)c3c(-c4cccs4)c(N)oc3c2)cc1OC`, the figures for the “fold change (FC)” value in data set [3] and in [1] were 8.85 and 8.42, respectively.
For the compound `COc1ccc(-c2cc(OC(C)=O)c3c(-c4ccc(OC)cc4)c(N)oc3c2)cc1`, the “fold change (FC)” value in data set [1] is reported as 1.75; in [2] it was 1.17.
Turning to `COc1ccc(-c2cc(OCCN3CCCCC3)c3c(-c4cccs4)c(N)oc3c2)cc1OC`, the “fold change (FC)” value in [1] was 6.06.
On to `COc1ccc(-c2cc(OCCN3CCOCC3)c3c(-c4cccs4)c(N)oc3c2)cc1`, for which the results for the “fold change (FC)” value in [3] and in data set [1] were 8.86 and 6.64, respectively.
On to `COc1ccc(-c2cc(OCc3cccc(Cl)c3)c3c(-c4cccs4)c(N)oc3c2)cc1`, for which the “fold change (FC)” value is recorded as 0.56 in [3] and 0.6 in data set [1].
Regarding `COc1ccc(-c2cc(O)c3c(-c4cccs4)c(N)oc3c2)cc1OC`, the “fold change (FC)” value in [1] is 1.15.
`COc1ccc(-c2cc(OC(C)=O)c3c(-c4ccccc4)c(N)oc3c2)cc1`: the “fold change (FC)” value in data set [1] is given as 2.27; in data set [2], 1.7.
For `COc1ccc(CCN(C)CCCC(C#N)(c2ccc(OC)c(OC)c2)C(C)C)cc1OC` (configuration not stated), the fold change (FC) in [4] was determined as 1.59; in [5], 1.82; in [6], 1.61; in data set [7], 46.1; in data set [9], 0.8; in data set [10], 1.04. The fold change (FC) in [11] was found to be 5.13; in data set [12] it was 1.27; in [13], 2.82; in [14], 1.49; in [15] it was 22.9; in [16], 3.91. The “fold change (FC)” value in data set [17] is 9.54; in data set [18], 1.37; in data set [19], 6.69; in [20], 1.33; in data set [21] it was 24. Also, the pIC50 in data set [8] was below 4.30.
On to `CC(=O)Oc1cccc2oc(N)c(-c3cccs3)c12`, for which the “fold change (FC)” value in [1] was 1.12; in data set [2], 1.05.
The like results for `COc1ccc(-c2cc(OC(C)=O)c3c(-c4cccc(Cl)c4)c(N)oc3c2)cc1` were, in that order, 2.45 and 1.85.
As for `COc1ccc(-c2cc(OC(C)=O)c3c(-c4ccc5c(c4)OCO5)c(N)oc3c2)cc1`, the “fold change (FC)” value in data set [1] is 1.48; in data set [2], 1.3.
In the case of `CC(=O)Oc1cc(-c2ccc3c(c2)OCO3)cc2oc(N)c(-c3cccs3)c12`, the “fold change (FC)” value in data set [1] is on record as 0.86; in data set [2], 0.96.
With `COc1ccc(-c2cc(OC(C)=O)c3c(-c4ccc(Cl)cc4)c(N)oc3c2)cc1`, the “fold change (FC)” value in data set [1] is recorded as 2.2; in data set [2], 1.52.
On to `COc1ccc(-c2cc(OC(C)=O)c3c(-c4c(Cl)cccc4Cl)c(N)oc3c2)cc1`, for which the “fold change (FC)” value is 1.81 in [1] and 1.34 in data set [2].
As for `COc1ccc(-c2cc(OCCN3CCCCC3)c3c(-c4cccs4)c(N)oc3c2)cc1`, the “fold change (FC)” value is 5.66 in data set [3] and 7.53 in data set [1].
Turning to `COc1ccc(-c2cc(OC(C)=O)c3c(-c4ccccc4OC)c(N)oc3c2)cc1`, the “fold change (FC)” value in data set [1] is 1.49; in data set [2], 1.32.
With `COc1ccc(-c2cc(OC(C)=O)c3c(-c4cccnc4)c(N)oc3c2)cc1`, the “fold change (FC)” value in data set [1] is reported as 1.13; in data set [2], 0.89.
The matching figures for `COc1ccc(-c2cc(OC(C)=O)c3c(-c4ccc(F)cc4)c(N)oc3c2)cc1`: 1.26 and 0.94.
The like results for `COc1ccc(-c2cc(OC(C)=O)c3c(-c4cccs4)c(N)oc3c2)cc1OC` were, in that order, 4.35 and 3.75.
On to `COc1ccc(-c2cc(O)c3c(-c4cccs4)c(N)oc3c2)cc1`, for which the “fold change (FC)” value in [1] was 1.62; in data set [2] it was 1.46.
As for `COc1ccc(-c2cc(OC(C)=O)c3c(-c4ccc(C)cc4)c(N)oc3c2)cc1`, the entries for the “fold change (FC)” value in data set [1] and in [2] were 1.86 and 1.45, respectively.
For the compound `CCN(CC)CCOc1cc(-c2ccc(OC)cc2)cc2oc(N)c(-c3cccs3)c12`, the “fold change (FC)” value is 10.14 in [3] and 8.85 in data set [1].
For `COc1ccc(-c2cc(OC(C)=O)c3c(-c4ccccc4Cl)c(N)oc3c2)cc1`, the “fold change (FC)” value in data set [1] is reported as 1.59; in data set [2], 1.3.
In the case of `COc1ccc(-c2cc(OCc3ncc(C)c(OC)c3C)c3c(-c4cccs4)c(N)oc3c2)cc1`, the “fold change (FC)” value in data set [3] is on record as 8.38; in data set [1], 7.97.
Turning to `COc1ccc(-c2cc(OCCCN3CCCCC3)c3c(-c4cccs4)c(N)oc3c2)cc1OC`, the “fold change (FC)” value in data set [1] is on record as 4.55.
Regarding `COc1ccc(-c2cc(OCc3ccncc3)c3c(-c4cccs4)c(N)oc3c2)cc1`, the “fold change (FC)” value in data set [3] is 5.88; in data set [1], 4.33.
For `COc1ccc(-c2cc(OCc3ccccc3)c3c(-c4cccs4)c(N)oc3c2)cc1`, the figures for the “fold change (FC)” value in data set [3] and in [1] were 0.85 and 0.81, respectively.
As to `COc1ccc(-c2cc(OC(C)=O)c3c(-c4ccccc4F)c(N)oc3c2)cc1`, the figures for the “fold change (FC)” value in data set [1] and in [2] were 1.82 and 1.31, respectively.
